Reference: patent publication US7160684B2, “Methods of selecting compounds for modulation of bladder function” (Wyeth, priority 2000, dated 2007)

Test system: isolated rat bladder smooth muscle cell
Assay: Current clamp recording of resting membrane potential, rat cells
Format: cell-based
Conditions: 10 μM retigabine
Excerpt: Rat detrusor cells are isolated in a manner previously described for guinea-pig detrusor (Sheldon J H, Norton N W and Argentieri T M (1997) Inhibition of guinea pig detrusor contraction by NS-1619 is associated with activation of BKCa and inhibition of calcium currents. J Pharmacol Exp Thera 283(3): 1193–1200). Male Sprague-Dawley rats (Charles River, Wilmington, Mass.; 200–400 grams) are euthanized by CO2 inhalation and exsanguination. Their urinary bladders are rapidly removed and placed in 37° C. physiological solution with the following composition (mM): Na glutamate (80.0), NaCl (54.7), KCl (5.0), NaHCO3 (25.0), MgCl2.2H2O (2.5), D-glucose (11.8) and CaCl2 (0.2) gassed with O2—CO2, 95%/5% for a final pH of 7.4. The dome of the bladder is isolated from the trigone region and the mucosa is removed. This tissue is then cut into 2–3 mm wide strips and placed into fresh buffer for 1 hour. Tissues are then transferred into 10 ml of an isolation buffer containing the above composition plus collagenase type VIII (1.0 mg/ml) and pronase (0.25 mg/ml). After 10 minutes the isolation buffer is replaced with fresh isolation buffer for an additional 10 min. The tissue is then washed 3 times in fresh collagenase and pronase free solution and stored at room temperature until studied. Cells for study are prepared by triturating 1–2 pieces of detrusor tissue in 2 ml of fresh isolation buffer for 5 minutes with a polished Pasteur pipette, (tip diameter ˜1.5 mm) attached to a modified Harvard Respirator pump (Harvard Apparatus, Southnatic, Mass.) at a rate of 20×/min. with an approximate volume of 5 ml. Cells are then placed on a microscope stage in a temperature regulated tissue bath at 32.5° C. and continually superfused with PSS.
Single cell recordings are performed with a List-Medical EPC-7 patch clamp amplifier (Adams & List Assoc., Westbury, N.Y.). Pipette electrodes had tip resistances of 2–4 MΩ and are filled with the following composition (mM): KCl (126.0), MgCl2.6H2O (4.5), ATP Mg salt (4.0), GTP tris salt (0.3), creatine PO4 (14.0), D-glucose (9.0), EGTA (9.0), HEPES (9.0). The pH is adjusted to 7.4 with KOH. Signals are acquired (3 kHz high frequency cut-off, 12 bit resolution) using a 586-based personal computer.
Cell resting membrane potential (RMP) is measured in current clamp using the above mentioned instrumentation and pipette solutions. For these experiments nystatin is also added to the pipette solution (100 μg/ml) to allow recording through utilization of the perforated patch technique (Korn, et al, 1991). […] After this time, various antagonists (linopirdine, XE-991) are added to the perfusate and RMP is recorded for an additional 5 minutes. […]

CCOC(=O)Nc1ccc(NCc2ccc(F)cc2)cc1N [retigabine, N-[2-amino-4-(4-fluorobenzylamino)-phenyl]carbamic acid ethyl ester]
hyperpolarization of the cell (RMP −40 mV before exposure, single tracing FIG. 3a): approximately 10 mV | resting membrane potential (RMP) after exposure (control RMP −29.0±4.5 mV, n=3): −43.0±3.5 mV
